System: gp60-mediated caveolar transcytosis
Test: Inhibition of transport of paclitaxel from ABX across endothelial monolayers
Assay type: cell-based, human
Details: FIG. 4
Description: Transport was dependent on albumin.

β-methyl cyclodextrin [BMC]
effect on transport of paclitaxel from ABX across endothelial monolayers: inhibited

CCN1C(=O)C=CC1=O [NEM]
effect on transport of paclitaxel from ABX across endothelial monolayers: inhibited

— patent US9671406B2, “SPARC and methods of use thereof” (Abraxis BioScience, LLC, priority 2006, dated 2017)
